In PMC8482623 (Nature structural & molecular biology, 2020):

Experiments:
[1] = molecular target: T1, mBcs1 (full-length mouse Bcs1; mBcs1-His) (Mus musculus, UniProt Q9CZP5); experiment: blue-native PAGE band shift; format: binding; conditions: conformational change seen as band shift
T1 sequence (Q9CZP5 1-418): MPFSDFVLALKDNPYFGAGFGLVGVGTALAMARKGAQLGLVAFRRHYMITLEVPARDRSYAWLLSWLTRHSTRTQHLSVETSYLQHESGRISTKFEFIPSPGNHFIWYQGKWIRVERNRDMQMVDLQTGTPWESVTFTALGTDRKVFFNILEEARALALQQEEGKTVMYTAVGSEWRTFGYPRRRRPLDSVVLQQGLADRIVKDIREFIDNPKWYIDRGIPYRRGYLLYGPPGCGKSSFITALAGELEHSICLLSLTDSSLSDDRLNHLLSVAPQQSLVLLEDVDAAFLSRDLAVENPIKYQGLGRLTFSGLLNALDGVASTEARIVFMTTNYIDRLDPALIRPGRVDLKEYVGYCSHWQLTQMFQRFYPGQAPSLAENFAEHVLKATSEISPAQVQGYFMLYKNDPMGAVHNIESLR

ΔNmBcs1 = ΔNmBcs1 (Mus musculus, UniProt Q9CZP5); experiment: X-ray crystal structure, […] Å; conditions: 2 mM AMP-PNP, 20 mM MgCl2, pH 7.5; nucleotide-binding site

## Nc1ncnc2c1ncn2[C@@H]1O[C@H](COP(=O)(O)OP(=O)(O)NP(=O)(O)O)[C@@H](O)[C@H]1O [AMP-PNP]
[1]
  blue-native PAGE band shift: incubation of ATPγS or AMP-PNP (nonhydrolyzable ATP) caused a shift in the protein band
ΔNmBcs1
  X-ray crystal structure, 2.2 Å: yielding a heptameric structure with clearly visible bound AMP-PNP
